Tests used:
[1] = biological target: MurC (Escherichia coli, UniProt P17952); assay: Inhibition of MurC, colorimetric malachite green method; format: biochemical, bacterial; conditions: for remaining activity at 100 µM: 0.25 h, residual activity at 100 µM, read-out: MurC RA (%); for remaining activity at 100 µM / IC50: Table 2; for IC50: IC50 ± SEM, read-out: MurC IC50; for MurC inhibition (in words): assayed at 100 µM
Method: Inhibition of Mur enzymes was monitored with the colorimetric malachite green method, which measured orthophosphate formed during reaction. The mixtures with a final volume of 50 µL contained:
MurC: 50 mM HEPES-NaOH, pH 8.0, 5 mM MgCl2, 0.005% Triton X-114, 120 µM L-Ala, 120 µM UDP-N-acetyl-muramic acid, 450 µM ATP, purified MurC, and 50 or 100 µM of each compound tested.
All compounds were soluble in the assay mixtures containing 5% DMSO (v/v). After incubation for 15 min (20 min for DdlB) at 37 °C, the enzyme reaction was terminated by addition of Biomol® reagent (100 µL) and absorbance was measured after 5 min at 650 nm (Synergy™ H4 microplate reader; BioTek Instruments, Inc., BioTek Gen5 Data Analysis Software, version 2.9, Santa Clara, CA, USA). All experiments were performed in duplicate.

[2] = biological target: T1, hMAO-B (Homo sapiens, UniProt P27338); assay: biochemical; conditions: for hMAO-B RA [%] / remaining activity at 10 µM: residual activity at 10 µM; for remaining activity at 10 µM: read-out: hMAO-B RA (%); for IC50: IC50 ± SEM
T1 construct: purchased Sigma Aldrich; host or cells: BTI-TN-5B1-4 baculovirus-infected insect cells
T1 sequence (P27338 1-520): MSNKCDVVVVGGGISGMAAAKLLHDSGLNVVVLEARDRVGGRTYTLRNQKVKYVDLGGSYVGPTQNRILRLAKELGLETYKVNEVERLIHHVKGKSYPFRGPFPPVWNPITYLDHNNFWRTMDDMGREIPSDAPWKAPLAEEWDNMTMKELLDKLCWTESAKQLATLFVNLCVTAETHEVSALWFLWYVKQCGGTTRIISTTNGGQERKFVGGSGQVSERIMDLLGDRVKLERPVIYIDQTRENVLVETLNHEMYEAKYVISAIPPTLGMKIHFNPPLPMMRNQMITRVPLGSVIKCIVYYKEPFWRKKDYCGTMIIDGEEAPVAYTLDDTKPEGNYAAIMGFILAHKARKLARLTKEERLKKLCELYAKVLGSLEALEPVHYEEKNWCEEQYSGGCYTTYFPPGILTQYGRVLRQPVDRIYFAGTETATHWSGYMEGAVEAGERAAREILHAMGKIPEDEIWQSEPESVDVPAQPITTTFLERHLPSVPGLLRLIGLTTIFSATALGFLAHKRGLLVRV
Text: (§1) The effects of the compounds on hMAO-A and hMAO-B were investigated using a fluorimetric assay, following a method previously described in the literature. Recombinant human microsomal hMAO enzymes expressed in BTI-TN-5B1-4 baculovirus-infected insect cells, horseradish peroxidase (HRP, type II, lyophilized powder), and p-tyramine hydrochloride were purchased from Sigma Aldrich. 10-Acetyl-3,7-dihydroxyphenoxazine (Amplex Red reagent) was synthesized as described in the literature.
After preincubation, the reaction was started by adding final concentrations of 200 µM Amplex Red reagent, 2 U/mL HRP, and 1 mM p-tyramine hydrochloride. Resorufin production was quantified based on the fluorescence produced (λex = 530 nm; λem = 590 nm) at 37 °C over a 20 min period. For the control experiments, DMSO was used instead of appropriate dilutions of the compounds in DMSO. For the determination of blank (b), the enzyme solution was replaced by a phosphate-buffered solution. Initial velocities were calculated from the obtained trend, with each measurement performed in duplicate. Specific fluorescence emission to determine the final results was calculated after subtracting the blank activity (b). Inhibitory potencies were expressed as RAs, and IC50 values were calculated as described in the section “Inhibition of hBChE and mAChE” above.

[3] = biological target: T2, hMAO-A (Homo sapiens, UniProt P21397); assay: Inhibition of hMAO-A, fluorimetric Amplex Red assay; format: biochemical; conditions: residual activity at 10 µM; for remaining activity at 10 µM: read-out: hMAO-A RA (%)
T2 construct: purchased Sigma Aldrich; host or cells: BTI-TN-5B1-4 baculovirus-infected insect cells
T2 sequence (P21397 1-527): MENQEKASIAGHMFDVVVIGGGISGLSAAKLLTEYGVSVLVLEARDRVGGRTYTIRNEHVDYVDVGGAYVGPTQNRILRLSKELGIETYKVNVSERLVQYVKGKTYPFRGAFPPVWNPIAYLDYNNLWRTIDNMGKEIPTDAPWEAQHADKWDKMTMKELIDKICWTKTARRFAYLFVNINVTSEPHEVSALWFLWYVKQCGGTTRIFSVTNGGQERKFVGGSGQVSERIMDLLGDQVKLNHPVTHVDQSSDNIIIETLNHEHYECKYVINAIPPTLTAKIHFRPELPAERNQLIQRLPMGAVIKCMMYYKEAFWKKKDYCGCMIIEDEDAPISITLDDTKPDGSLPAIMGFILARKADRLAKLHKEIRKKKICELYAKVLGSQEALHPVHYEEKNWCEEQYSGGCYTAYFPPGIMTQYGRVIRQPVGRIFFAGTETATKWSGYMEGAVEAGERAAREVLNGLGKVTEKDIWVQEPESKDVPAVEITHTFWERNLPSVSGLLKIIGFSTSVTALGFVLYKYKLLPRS
Method: as §1
Briefly, 100 µL of 50 mM sodium phosphate buffer (pH 7.4, 0.05% (v/v) Triton X-114), containing the compounds and hMAO-A or hMAO-B, was incubated for 15 min at 37 °C in a flat-bottomed black 96-well microplate protected from ambient light. After preincubation, the reaction was started by adding final concentrations of 200 µM Amplex Red reagent, 2 U/mL HRP, and 1 mM p-tyramine hydrochloride. Resorufin production was quantified based on the fluorescence produced (λex = 530 nm; λem = 590 nm) at 37 °C over a 20 min period. For the control experiments, DMSO was used instead of appropriate dilutions of the compounds in DMSO. For the determination of blank (b), the enzyme solution was replaced by a phosphate-buffered solution. Initial velocities were calculated from the obtained trend, with each measurement performed in duplicate. Specific fluorescence emission to determine the final results was calculated after subtracting the blank activity (b). Inhibitory potencies were expressed as RAs, and IC50 values were calculated as described in the section “Inhibition of hBChE and mAChE” above.

Sequence of MurC (P17952 whole entry): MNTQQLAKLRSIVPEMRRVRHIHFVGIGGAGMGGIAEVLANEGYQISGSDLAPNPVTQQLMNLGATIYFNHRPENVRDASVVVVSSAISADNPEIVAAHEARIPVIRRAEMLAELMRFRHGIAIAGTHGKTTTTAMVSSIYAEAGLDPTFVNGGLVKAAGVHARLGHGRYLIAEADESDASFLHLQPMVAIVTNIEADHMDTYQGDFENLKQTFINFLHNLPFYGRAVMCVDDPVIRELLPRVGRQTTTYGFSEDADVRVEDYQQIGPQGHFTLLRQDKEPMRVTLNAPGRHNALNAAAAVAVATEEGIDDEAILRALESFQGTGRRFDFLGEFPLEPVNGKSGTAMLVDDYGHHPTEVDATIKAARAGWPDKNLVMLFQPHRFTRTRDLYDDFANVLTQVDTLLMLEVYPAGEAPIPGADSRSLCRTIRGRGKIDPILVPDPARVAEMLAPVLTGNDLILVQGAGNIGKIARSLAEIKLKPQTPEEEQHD

CCCCc1nc2ccn(Cc3ccccc3Cl)c(=O)c2n1Cc1ccc(-c2ccccc2-c2nnn[nH]2)cc1 [Compound 11]
remaining activity at 100 µM [1]: 20%
IC50 [1]: 77 ± 12 µM

CCCCc1nc2ccn(Cc3ccccc3F)c(=O)c2n1Cc1ccc(-c2ccccc2-c2nnn[nH]2)cc1 [Compound 10]
remaining activity at 100 µM [1]: 30%
IC50 [1]: 92 ± 11 µM

O=C(NCCc1ccc(Cl)cc1)c1cc(OCC2CCCN2c2ccnc3ncnn23)c2ccccc2n1 (stereo not drawn) [Compound S8]
hMAO-B RA [%] ([2]; Table S3): 104%
hMAO-A RA [%] ([3]; Table S3): 86%

CNC(=O)c1cc(Oc2ccc(NC(=O)Nc3cc(C(F)(F)F)ccc3F)cc2)ccn1 [Compound 24]
remaining activity at 10 µM ([2]; Table 3): 100%
remaining activity at 10 µM ([3]; Table 3): 100%

FC(F)(F)c1ccc2nccc(OCC3CCCN3c3ccnc4ncnn34)c2c1 (stereo not drawn) [Compound S1]
hMAO-B RA [%] ([2]; Table S3): 75%
hMAO-A RA [%] ([3]; Table S3): 70%

CCCCc1nc2ccn(CC(=O)NC(C)(C)C)c(=O)c2n1Cc1ccc(-c2ccccc2S(=O)(=O)NC(=O)CCc2ccccc2)cc1F [Compound 15]
remaining activity at 100 µM [1]: 59%
MurC inhibition (in words) [1]: loss of MurC inhibition

CNC(=O)c1cc(Oc2ccc(NC(=O)Nc3cc(C(F)(F)F)ccc3-n3cncn3)cc2)ccn1 [Compound 20]
remaining activity at 10 µM ([2]; Table 3): 99%
hMAO-A RA [%] ([3]; Table 3): 60%

CCCCc1nc2ccn(Cc3ccsc3)c(=O)c2n1Cc1ccc(-c2ccccc2-c2nnn[nH]2)cc1 [Compound 14]
remaining activity at 100 µM [1]: 26%
IC50 [1]: 90 ± 13 µM

CCCCc1nc2ccn(CC(=O)C(C)(C)C)c(=O)c2n1Cc1ccc(-c2ccccc2-c2nnn[nH]2)cc1 [Compound 17]
remaining activity at 100 µM [1]: 75%
MurC inhibition (in words) [1]: loss of MurC inhibition

CCCCc1nc2ccn(CC(=O)N3CCCCC3)c(=O)c2n1Cc1ccc(-c2ccccc2S(=O)(=O)NC(=O)CCc2ccccc2)cc1F [Compound 16]
remaining activity at 100 µM [1]: 53%

Nc1ccc(NC(=O)Nc2cc(C(F)(F)F)ccc2-n2cncn2)cc1 [Compound 23]
IC50 ([2]; Table 3): 3 ± 0.8 µM
remaining activity at 10 µM ([2]; Table 3): 24%
remaining activity at 10 µM ([3]; Table 3): 100%

O=C(Nc1cc(C(F)(F)F)ccc1-n1cncn1)Nc1ccc(OCCN2CCOCC2)c2ccccc12 [Compound 25]
remaining activity at 10 µM ([2]; Table 3): 86%
remaining activity at 10 µM ([3]; Table 3): 79%

O=C(OCC1CCCN1c1ccnc2ncnn12)c1cccc(OC(F)(F)F)c1 (stereo not drawn) [Compound S10]
hMAO-B RA [%] ([2]; Table S3): 81%
hMAO-A RA [%] ([3]; Table S3): 92%

CCCCc1nc2ccn(Cc3ccccc3C(=O)OC)c(=O)c2n1Cc1ccc(-c2ccccc2-c2nnn[nH]2)cc1 [Compound 12]
remaining activity at 100 µM [1]: 27%
IC50 [1]: 84 ± 15 µM

CN(C)CCOc1ccc(NC(=O)Nc2cc(C(F)(F)F)ccc2-n2cncn2)cc1 [Compound 27]
IC50 ([2]; Table 3): 0.465 ± 0.042 µM
remaining activity at 10 µM ([2]; Table 3): 6%
remaining activity at 10 µM ([3]; Table 3): 117%

CNC(=O)c1cc(Oc2ccc(NC(=O)Nc3cc(C(F)(F)F)ccc3-n3cncn3)cc2)cc[n+]1[O-] [Compound 26]
remaining activity at 10 µM ([2]; Table 3): 98%
remaining activity at 10 µM ([3]; Table 3): 89%

CCCCc1nc2ccn(Cc3ccccc3C(=O)OCC)c(=O)c2n1Cc1ccc(-c2ccccc2C#N)cc1 [Compound 18]
remaining activity at 100 µM [1]: 58%

O=C(OCC1CCCN1c1ccnc2ncnn12)c1ccccc1I (stereo not drawn) [Compound S9]
hMAO-B RA [%] ([2]; Table S3): 93%
hMAO-A RA [%] ([3]; Table S3): 90%

CCOc1cccc(C(=O)OCC2CCCN2c2ccnc3ncnn23)c1 (stereo not drawn) [Compound S6]
hMAO-B RA [%] ([2]; Table S3): 88%
hMAO-A RA [%] ([3]; Table S3): 96%

Nc1ncnc2c1ncn2-c1ccc(NC(=O)Nc2cc(C(F)(F)F)ccc2-n2cncn2)cc1 [Compound 22]
IC50 ([2]; Table 3): 0.71 ± 0.1 µM
remaining activity at 10 µM ([2]; Table 3): 6%
remaining activity at 10 µM ([3]; Table 3): 111%

c1cc(OCC2CCCN2c2ccnc3ncnn23)c2cccnc2c1 (stereo not drawn) [Compound S4]
hMAO-B RA [%] ([2]; Table S3): 99%
hMAO-A RA [%] ([3]; Table S3): 80%

CCCCc1nc2ccn(Cc3ccccc3C(=O)O)c(=O)c2n1Cc1ccc(-c2ccccc2-c2nnn[nH]2)cc1 [Compound 13]
remaining activity at 100 µM [1]: 34%
IC50 [1]: 109 ± 26 µM

CC(=O)N1CCc2cccc(OCC3CCCN3c3ccnc4ncnn34)c2C1 (stereo not drawn) [Compound S5]
hMAO-B RA [%] ([2]; Table S3): 98%
hMAO-A RA [%] ([3]; Table S3): 94%

CCCCc1nc2ccn(Cc3ccccc3-c3ccccc3)c(=O)c2n1Cc1ccc(-c2ccccc2-c2nnn[nH]2)cc1 [Compound 19]
remaining activity at 100 µM [1]: 15%
IC50 [1]: 75 ± 9 µM

CNC(=O)c1cc(Oc2ccc(NC(=O)Nc3cc(C(F)(F)F)ccc3-n3cncn3)cc2)ccn1 [Compound 21]
hMAO-B RA [%] ([2]; Table 3): 88%
hMAO-A RA [%] ([3]; Table 3): 92%

N#Cc1cccc(C(=O)OCC2CCCN2c2ccnc3ncnn23)c1 (stereo not drawn) [Compound S3]
hMAO-B RA [%] ([2]; Table S3): 91%
hMAO-A RA [%] ([3]; Table S3): 96%

O=C(OCC1CCCN1c1ccnc2ncnn12)c1cccc(CCl)c1 (stereo not drawn) [Compound S7]
hMAO-B RA [%] ([2]; Table S3): 93%
hMAO-A RA [%] ([3]; Table S3): 70%

O=C(Nc1ccc(OCCN2CCCCC2)cc1)Nc1cc(C(F)(F)F)ccc1-n1cncn1 [Compound 28]
IC50 ([2]; Table 3): 2.6 ± 0.1 µM
remaining activity at 10 µM ([2]; Table 3): 15%
remaining activity at 10 µM ([3]; Table 3): 94%

CNC(=O)c1cc(Oc2ccc(NC(=O)Nc3ccc(Cl)c(C(F)(F)F)c3)cc2)ccn1 [Compound 29]
remaining activity at 10 µM ([2]; Table 3): 89%
remaining activity at 10 µM ([3]; Table 3): 86%

COc1ccc2c3c([nH]c2c1)C(C)=NCC3 [Harmaline, reference compound]
remaining activity at 10 µM ([3]; Table 3): 0%

c1cc(OCC2CCCN2c2ccnc3ncnn23)c2ccncc2c1 (stereo not drawn) [Compound S2]
hMAO-B RA [%] ([2]; Table S3): 88%
hMAO-A RA [%] ([3]; Table S3): 87%

Reference: paper PMC9320114 (Molecules, 2022)
